Tests used:
Experiment in all cases: relative viability (nuclei count vs DMSO), 5 days (fraction); higher = more cells survive
Axitinib + Olaparib = compound: CNC(=O)c1ccccc1Sc1ccc2c(/C=C/c3ccccn3)n[nH]c2c1 [Axitinib] + O=C(c1cc(Cc2n[nH]c(=O)c3ccccc23)ccc1F)N1CCN(C(=O)C2CC2)CC1 [Olaparib] (partner 8 µM)
Method in brief: (§1)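 Medians of duplicate plates are given as relative viability. That measure is the nuclei count in treated wells divided by the count in vehicle wells. Counts were taken on 4× images of lung cancer cell lines in 1536-well plates, 5 days after pin-tool dosing the day after seeding with one drug alone or a fixed anchor-drug dose plus five library-drug doses (not always all listed) in √10 steps.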

[1] = compound: CC1=CC=C(C=C1)C(=O)CN2C3=C(CCCC3)SC2=N [Pifithrin_alpha] + Cc1nc(Nc2ncc(C(=O)Nc3c(C)cccc3Cl)s2)cc(N2CCN(CCO)CC2)n1 [Dasatinib] (partner 0.075 µM)
Method in brief: as §1

Bemcentinib + Lapatinib = compound: Nc1nc(Nc2ccc3c(c2)CC[C@@H](N2CCCC2)CC3)nn1-c1cc2c(nn1)-c1ccccc1CCC2 [Bemcentinib] + CS(=O)(=O)CCNCc1ccc(-c2ccc3ncnc(Nc4ccc(OCc5cccc(F)c5)c(Cl)c4)c3c2)o1 [Lapatinib] (partner 2 µM)
Method in brief: as §1

[2] = compound: CC1=CC=C(C=C1)C(=O)CN2C3=C(CCCC3)SC2=N [Pifithrin_alpha] + CCNC(=O)c1noc(-c2cc(C(C)C)c(O)cc2O)c1-c1ccc(CN2CCOCC2)cc1 [Luminespib] (partner 0.01 µM)
Method in brief: as §1

## NCI-H650
Axitinib + Olaparib; first compound 0.005 µM
  relative viability: 0.403
Axitinib + Olaparib; first compound 0.01581 µM
  relative viability: 0.389
Axitinib + Olaparib; first compound 0.05 µM
  relative viability: 0.394
Axitinib + Olaparib; first compound 0.1581 µM
  relative viability: 0.406
Axitinib + Olaparib; first compound 0.5 µM
  relative viability: 0.444
[1]; first compound 3.162 µM
  relative viability: 0.489
[1]; first compound 10 µM
  relative viability: 0.441
[1]; first compound 31.62 µM
  relative viability: 0.415
[1]; first compound 100 µM
  relative viability: 0.388
Bemcentinib + Lapatinib; first compound 0.04 µM
  relative viability: 0.885
Bemcentinib + Lapatinib; first compound 0.1265 µM
  relative viability: 1.02
Bemcentinib + Lapatinib; first compound 0.4 µM
  relative viability: 0.906
Bemcentinib + Lapatinib; first compound 1.265 µM
  relative viability: 0.759
Bemcentinib + Lapatinib; first compound 4 µM
  relative viability: 0.775
[2]; first compound 3.162 µM
  relative viability: 0.904
[2]; first compound 10 µM
  relative viability: 0.801
[2]; first compound 31.62 µM
  relative viability: 0.607
[2]; first compound 100 µM
  relative viability: 0.773

— the supplement of paper PMC10307832
